US6894075B2, “4′-demethyl-4′-O-substituted-1-deoxypodophyllotoxin derivative and geometric isomer thereof, process for the preparation thereof and anti-cancer composition comprising the same” (priority 2000, dated 2005)
pEC50: −log10 of the molar value. Where two headings read alike, the source gives them in different places.

What was measured:
[1] = test system: A549 cell; experiment: Cytotoxicity test (SRB method) for A549 cells; type: cell-based, human; conditions: for cytotoxicity compared with DPT: A549, in words; for EC50: A549 human lung cancer cell, SRB, read-out: ED50(nM) for A549; for EC50 / ED50(mg/mL) for A549: 48 hours incubation; for pEC50 / ED50(mg/mL) for A549: A549, SRB; for pEC50: Table 2, unit printed in the cell, read-out: ED50 for A549, cells marked; for ED50(mg/mL) for A549: Table 2
Excerpt: (§1) Human lung carcinomas A549 and […] were used for determining cytotoxicity of the compounds of the present invention according to the Sulfrhodamine-B (SRB) method which was developed by NCI in 1989 in order to determine in vitro anticancer activity of drugs.
(§2) Cells to be used in the experiment were separated from a surface using 0.5% Trypsin-EDTA solution and suspended in a density of 5×10^4 cell/ml therein. The cell suspension was introduced into a 96-well plate in an amount of 180/well and incubated for 24 hours in a 5% CO2 incubator of 37° C. Samples were dissolved in dimethylsulfoxide and then diluted by water distilled in advance for three times just before the experiment. Forty-one (41) samples were prepared into 4 types of final concentrations, i.e., 0.1, 0.03, 0.01 and 0.003 mg per ml of the medium. The diluted sample solutions were added to the 96-well plate in the amount of 20 μl/well and incubated for 48 hours in a CO2 incubator of 37° C. At the time of adding the samples, Tz (Time zero) plate was taken. The medium was removed from the Tz plate and each of the plates after incubation were completed. Ten (10)% […] (TCA) was added in the amount of […], and allowed to stand for 1 hour at 4° C. to fix the cells on the bottom surface of the plate. After the cells were fixed, the plate was washed five to six times with water to completely remove the remaining TCA solution and then dried at room temperature to completely remove the moisture. To the fully dried plate was introduced a dye solution in the amount of […] in which 0.4% SRB was dissolved in 1% acetic acid solution. […] After the dyeing process, the plate was dried again at room temperature. 100 ml of 10 mM Tris solution was added thereto in order to dissolve the dye, and then O.D. (optical density) was determined by microplate reader at 520 nm.
(§3) ED50 values for cancer cells were calculated as follows. The amount of SRB protein was analyzed at the time when incubation started by the addition of the sample. This amount was named time zero (Tz). The O.D. value obtained from a group which was not treated by the sample was named Control group (C) and the O.D. value obtained from a group which was treated by the sample was named Test group (T).
(§4) The degree of cytotoxicity of the compounds was calculated from Tz, C and T values according to the following equation.
(§5) That is, in the case of Tz≧T, the degree was calculated by
(§6) (T−Tz)/(C−Tz)×100(%), and
(§7) • in the case of Tz<T, the degree was calculated by […].
(§8) From the values thus obtained, ED50 value which is defined as the concentration at which growth of the cancer cell is inhibited by 50% was calculated using the regression function of Excel program.

[2] = test system: SK-MEL-2 cell; experiment: Cytotoxicity test (SRB method) for SK-MEL-2 cells; type: cell-based, human; conditions: SK-MEL-2, SRB, 48 hours incubation
Excerpt: as §1, §2, §3, §4, §5, §6, §7, §8

## COc1cc(C2c3cc4c(cc3CC3COC(=O)C32)OCO4)cc(OC)c1OC(=O)[C@H](C)N (stereo partly drawn) [Compound 1a-1, 4′-demethyl-4′-O-alanoyl-1-deoxypodophyllotoxin]
[1]
  cytotoxicity compared with DPT: stronger cytotoxicity than DPT
  EC50: 21.9 nM

## COc1cc(C2c3cc4c(cc3CC3COC(=O)C32)OCO4)cc(OC)c1OC(=O)C(N)C(C)C (stereo not drawn) [Compound 1a-3, 4′-demethyl-4′-O-valinoyl-1-deoxypodophyllotoxin]
[1]
  EC50: 88.2 nM

## COc1cc(C2c3cc4c(cc3CC3COC(=O)C32)OCO4)cc(OC)c1OC(=O)CN (stereo not drawn) [Compound 1a-4, 4′-demethyl-4′-O-glycinoyl-1-deoxypodophyllotoxin]
[1]
  EC50: 102 nM

## COc1cc(C2c3cc4c(cc3CC3COC(=O)C32)OCO4)cc(OC)c1OC(=O)C(N)CO (stereo not drawn) [Compound 1a-5, 4′-demethyl-4′-O-serinoyl-1-deoxypodophyllotoxin]
[1]
  cytotoxicity compared with DPT: stronger cytotoxicity than DPT
  EC50: 55 nM

## COc1cc(C2c3cc4c(cc3CC3COC(=O)C32)OCO4)cc(OC)c1OC(=O)C(N)Cc1ccccc1 (stereo not drawn) [Compound 1a-7, 4′-demethyl-4′-O-phenylalanoyl-1-deoxypodophyllotoxin]
[1]
  EC50: 86.6 nM

## COc1cc(C2c3cc4c(cc3CC3COC(=O)C32)OCO4)cc(OC)c1OC(=O)[C@@H](N)Cc1ccc(O)cc1 (stereo partly drawn) [Compound 1a-9, 4′-demethyl-4′-O-tyrosinoyl-1-deoxypodophyllotoxin]
[1]
  EC50: 104 nM

## COc1cc(C2c3cc4c(cc3CC3COC(=O)C32)OCO4)cc(OC)c1OC(=O)Cc1ccc(N)cc1 (stereo not drawn) [Compound 1a-16, 4′-demethyl-4′-O-(4-aminophenylacetyl)-1-deoxypodophyllotoxin]
[1]
  EC50: 114 nM

## CCNC(=O)Oc1c(OC)cc(C2c3cc4c(cc3CC3COC(=O)C32)OCO4)cc1OC (stereo not drawn) [Compound 1b-1, 4′-demethyl-4′-O-ethylcarbamoyl-1-deoxypodophyllotoxin]
[1]
  EC50: 132 nM

## COc1cc(C2c3cc4c(cc3CC3COC(=O)C32)OCO4)cc(OC)c1OC(=O)NC(=O)CCl (stereo not drawn) [Compound 1b-6, 4′-demethyl-4′-O-chloroacetylcarbamoyl-1-deoxypodophyllotoxin]
[1]
  EC50: 80.3 nM

## C=CCNC(=O)Oc1c(OC)cc(C2c3cc4c(cc3CC3COC(=O)C32)OCO4)cc1OC (stereo not drawn) [Compound 1b-7, 4′-demethyl-4′-O-allylcarbamoyl-1-deoxypodophyllotoxin]
[1]
  EC50: 90.5 nM

## COc1cc(C2c3cc4c(cc3CC3COC(=O)C32)OCO4)cc(OC)c1OC(=O)Nc1ccccc1 (stereo not drawn) [Compound 1b-8, 4′-demethyl-4′-O-phenylcarbamoyl-1-deoxypodophyllotoxin]
[1]
  EC50: 177 nM

## COc1cc(C2c3cc4c(cc3CC3COC(=O)C32)OCO4)cc(OC)c1OC(=O)Nc1ccc(F)cc1 (stereo not drawn) [Compound 1b-9, 4′-demethyl-4′-O-(4-fluorophenylcarbamoyl)-1-deoxypodophyllo-toxin]
[1]
  EC50: 86.3 nM

## COc1ccc(NC(=O)Oc2c(OC)cc(C3c4cc5c(cc4CC4COC(=O)C43)OCO5)cc2OC)cc1 (stereo not drawn) [Compound 1b-10, 4′-demethyl-4′-O-(4-methoxyphenylcarbamoyl)-1-deoxypodophyllotoxin]
[1]
  EC50: 95.6 nM

## COc1cc(C2c3cc4c(cc3CC3COC(=O)C32)OCO4)cc(OC)c1OC(=O)Nc1ccc(C)cc1 (stereo not drawn) [Compound 1b-11, 4′-demethyl-4′-O-(4-methylphenylcarbamoyl)-1-deoxypodophyllotoxin]
[1]
  EC50: 99.3 nM

## COc1cc(C2c3cc4c(cc3CC3COC(=O)C32)OCO4)cc(OC)c1OC(=O)Nc1ccc(SC)cc1 (stereo not drawn) [Compound 1b-12, 4′-demethyl-4′-O-(4-methylthiophenylcarbamoyl)-1-deoxypodophyllotoxin]
[1]
  EC50: 106 nM

## COc1ccccc1NC(=O)Oc1c(OC)cc(C2c3cc4c(cc3CC3COC(=O)C32)OCO4)cc1OC (stereo not drawn) [Compound 1b-13, 4′-demethyl-4′-O-(2-methoxyphenylcarbamoyl)-1-deoxypodophyllotoxin]
[1]
  cytotoxicity compared with DPT: stronger cytotoxicity than DPT
  EC50: 66.2 nM

## COc1cc(C2c3cc4c(cc3CC3COC(=O)C32)OCO4)cc(OC)c1OC(=O)NCc1ccccc1 (stereo not drawn) [Compound 1b-14, 4′-demethyl-4′-O-benzylcarbamoyl-1-deoxypodophyllotoxin]
[1]
  cytotoxicity compared with DPT: stronger cytotoxicity than DPT
  EC50: 72 nM

## COc1cc(C2c3cc4c(cc3CC3COC(=O)C32)OCO4)cc(OC)c1OC(=O)NC(=O)c1ccccc1 (stereo not drawn) [Compound 1b-15, 4′-demethyl-4′-O-benzoylcarbamoyl-1-deoxypodophyllotoxin]
[1]
  EC50: 77 nM

## COc1cc(C2c3cc4c(cc3CC3COC(=O)C32)OCO4)cc(OC)c1OC(=O)NS(=O)(=O)c1ccccc1 (stereo not drawn) [Compound 1b-16, 4′-demethyl-4′-O-benzenesulfonylcarbamoyl-1-deoxypodophyllo-toxin]
[1]
  cytotoxicity compared with DPT: stronger cytotoxicity than DPT
  EC50: 50.6 nM

## COc1cc(C=CC(=O)Oc2c(OC)cc(C3c4cc5c(cc4CC4COC(=O)C43)OCO5)cc2OC)cc(OC)c1OC (stereo not drawn) [Compound 1c-1, 4′-demethyl-4′-O-(3,4,5-trimethoxyphenylcinnamoyl)-1-deoxypodophyllotoxin]
[1]
  pEC50: 6.97

## COc1cc(C2c3cc4c(cc3CC3COC(=O)C32)OCO4)cc(OC)c1OC(=O)Cc1ccc(N(C)C)cc1 (stereo not drawn) [Compound 1c-2, 4′-demethyl-4′-O-(4-dimethylaminophenylacetyl)-1-deoxypodophyllotoxin]
[1]
  pEC50: 6.97

## COc1cc(C2c3cc4c(cc3CC3COC(=O)C32)OCO4)cc(OC)c1OC(C)=O (stereo not drawn) [Compound 1c-3, 4′-demethyl-4′-O-acetyl-1-deoxypodophyllotoxin]
[1]
  ED50(mg/mL) for A549: 0.003 mg/mL
[2]
  ED50(mg/mL) for SK-MEL-2: 0.006 mg/mL

## CCC(=O)Oc1c(OC)cc(C2c3cc4c(cc3CC3COC(=O)C32)OCO4)cc1OC (stereo not drawn) [Compound 1c-4, 4′-demethyl-4′-O-propanoyl-1-deoxypodophyllotoxin]
[1]
  ED50(mg/mL) for A549: 0.004 mg/mL
[2]
  ED50(mg/mL) for SK-MEL-2: 0.010 mg/mL

## CCCC(=O)Oc1c(OC)cc(C2c3cc4c(cc3CC3COC(=O)C32)OCO4)cc1OC (stereo not drawn) [Compound 1c-5, 4′-demethyl-4′-O-butanoyl-1-deoxypodophyllotoxin]
[1]
  ED50(mg/mL) for A549: 0.005 mg/mL
[2]
  ED50(mg/mL) for SK-MEL-2: 0.017 mg/mL

## COc1cc(C2c3cc4c(cc3CC3COC(=O)C32)OCO4)cc(OC)c1OC(=O)CC(C)C (stereo not drawn) [Compound 1c-6, 4′-demethyl-4′-O-(3′-methylbutanoyl)-1-deoxypodophyllotoxin]
[1]
  ED50(mg/mL) for A549: 0.006 mg/mL
[2]
  ED50(mg/mL) for SK-MEL-2: 0.089 mg/mL

## CCCCCCC(=O)Oc1c(OC)cc(C2c3cc4c(cc3CC3COC(=O)C32)OCO4)cc1OC (stereo not drawn) [Compound 1c-7, 4′-demethyl-4′-O-heptanoyl-1-deoxypodophyllotoxin]
[1]
  ED50(mg/mL) for A549: 0.013 mg/mL
[2]
  ED50(mg/mL) for SK-MEL-2: 0.078 mg/mL

## CCCCCCCC(=O)Oc1c(OC)cc(C2c3cc4c(cc3CC3COC(=O)C32)OCO4)cc1OC (stereo not drawn) [Compound 1c-8, 4′-demethyl-4′-O-octanoyl-1-deoxypodophyllotoxin]
[1]
  ED50(mg/mL) for A549: 0.009 mg/mL
[2]
  ED50(mg/mL) for SK-MEL-2: 0.030 mg/mL

## CCCCCCCCCC(=O)Oc1c(OC)cc(C2c3cc4c(cc3CC3COC(=O)C32)OCO4)cc1OC (stereo not drawn) [Compound 1c-9, 4′-demethyl-4′-O-decanoyl-1-deoxypodophyllotoxin]
[1]
  ED50(mg/mL) for A549: 0.027 mg/mL
[2]
  ED50(mg/mL) for SK-MEL-2: 0.004 mg/mL

## COc1cc(C2c3cc4c(cc3CC3COC(=O)C32)OCO4)cc(OC)c1OC(=O)c1ccccc1 (stereo not drawn) [Compound 1c-10, 4′-demethyl-4′-O-benzoyl-1-deoxypodophyllotoxin]
[1]
  ED50(mg/mL) for A549: 0.095 mg/mL
[2]
  ED50(mg/mL) for SK-MEL-2: 0.066 mg/mL
